# Measurements published in USRE35053E, “Amines useful in producing pharmaceutically active CNS compounds” (The Upjohn Company, priority 1992, dated 1995).
# Where a name gives a salt, the structure may show the parent alone.
# What was measured:
# mouse head injury = assay: in vivo mouse head injury procedure of Hall, grip test; settings: statistically significant (p<0.05)
# arachidonic acid = assay: Arachidonic Acid Antagonism Assay (AAAA); type: in vivo, mouse (Charles River male CF-1); settings: mice; IV, 15 min before sodium arachidonate; outside 95% confidence interval of control LD50
# How it was run: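 Male CF-1 mice ([…]) received compound IV in 1.0% Tween-80/0.1% HCl in water. LD50 was determined by Spearman-Karber (log dose interval 0.05, N-6); an LD50 raised outside the control 95% confidence interval counted as active.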
# interleukin-1 = assay: inhibition of interleukin-1 induced T cell proliferation assay; type: cell-based; settings: interleukin-1; 10^-6 M
# Source text: The inhibition of interleukin-1 induced T cell proliferation assay, Proc. Nat. […] Since people with arthritis make excess interleukin 1, compounds which inhibit the activity of interleukin 1 are useful in the treatment of arthritis. According to this procedure compounds which inhibit the activity of interleukin 1 greater that 30% at 10^-6 M are considered to be "active".
# [1] = test system: AcylCoA:Cholesterol Acyltransferase (ACAT); assay: AcylCoA:Cholesterol Acyltransferase (ACAT) inhibition Assay; type: cell-based; set-up: key: compounds which inhibit ACAT activity equal to, or greater than, that of chlorpromazine are considered "active"; settings: active = equal to or greater than chlorpromazine; Fu5AH cells preferred
# Source text: ACAT esterifies arterial cholesterol which is a key reaction in the development of atherosclerosis. The procedure of Bell, Can. J. Blochem. 60. […] In the ACAT assay it is preferred to use Fu5AH cells, see Lipids 9, 526 (1974). According to this procedure, compounds which inhibit ACAT activity equal to, or greater than, that of chlorpromazine are considered "active".
# [2] = test system: induced mucous secretions; assay: inhibition of mucous secretion assay of Johnson; settings: inhibit or block enhancement of induced mucous secretions
# Source text: The inhibition of mucous secretion assay of Johnson Int. […] According to this procedure compounds which inhibit or block enhancement of induced mucous secretions when tested are considered to be "active".
# angiogenesis = assay: fertile egg or chick embryo assay of Folkman (inhibition of angiogenesis / tumor growth); type: in vivo; settings: chick embryo; 50 μg/10 μl in the presence of heparin
# Method: According to this procedure compounds which are considered to be "active" (i.e, antiangiogenic) give an avascular zone of 4 mm or greater in some embryos when tested at 50 μg/10 μl in the presence of 50 μg/10 μ of heparin.
# aspirin induced ulcer = assay: aspirin/cold induced ulcer assay of Rainsford; type: in vivo; settings: active = 50% or more reduction of ulcer index
# [3] = test system: serum and arterial cholesterol; assay: Antiatherosclerosis screen in Susceptible to Experimental Atherosclerosis (SEA) Japanese Quail; type: in vivo; settings: SEA Japanese quail fed atherogenic diet; active = decrease >30 %
# Method: While not necessary, some minor modifications for extraction of cholesterol from the artery have been made. These are as follows: frozen arteries are homogenized in hexane/isopropanol (3/2) and the volume adjusted with Triton 100 solution (1.5% in hexane/isopropanol) to 7 ml. After standing 12 hr at 20°-25°, the supernatant, obtained by low speed centrifugation is evaporated until dry and then the residue is suspended in 0.5 ml of 5% Triton 100 in isopropanol. This suspension is incubated for 10 min at 45° to dissolve the material. This solution as well as the diluted serum samples are analyzed for cholesterol by standard clinical chemistry analyzer methods. According to the above procedure compounds which decrease serum or arterial cholesterol >30 % are considered to be "active".
# Compounds which reduce serum and arterial cholesterol and are useful in treating atherosclerosis and its complications; for example, reduction of serum cholesterol by drugs reduces the incidence of coronary heart disease JAMA 251, 351 (1984) and JAMA 251, 365 (1984).
SMILES,% Increase in 1 hr Post-Injury Grip Test Scores After 3 mg/kg (mouse head injury) [%],% Inhibition at 10^-6 M (interleukin-1) [%],inhibition of ACAT [1],inhibition of mucous secretion [2],other results
"C[C@]12CCC(=O)C=C1CC[C@@H]1C2=CC[C@@]2(C)[C@H]1CC[C@]2(O)C(=O)CN1CCOCC1 [Example 93, 17α-hydroxy-21-(4-morpholino)-pregna-4,9(11)-diene-3,20-dione(E)-2-butanedioate (1:1) salt]",134.5,62,,,arachidonic acid antagonism (elevation of LD50 of arachidonic acid) (arachidonic acid): demonstrate arachidonic acid antagonism
"CCN(CC)c1cc(N2CCN(CC(=O)[C@@]3(O)[C@H](C)C[C@H]4[C@@H]5CCC6=CC(=O)C=C[C@]6(C)C5=CC[C@@]43C)CC2)nc(N(CC)CC)n1.Cl.O [Example 18, 21-[4-[2,6-Bis(diethylamino)-4-pyrimidinyl]-1-piperazinyl]-17α-hydroxy-16α-methylpregna-1,4,9(11)-triene-3,20-dione hydrochloride hydrate]",,,active,demonstrate such activity,
"CCN(CC)c1cc(N2CCN(CC(=O)[C@@]3(O)CC[C@H]4[C@@H]5CCC6=CC(=O)CC[C@]6(C)C5=CC[C@@]43C)CC2)nc(N(CC)CC)n1 [Example 16, 17α-Hydroxy-21-[4-[2,6-bis(diethylamino)pyrimidinyl]-1-piperazinyl]pregna4,9(11)-diene-3,20-dione dihydro-chloridehydrate]",,84,,demonstrate such activity,% of Embryos with 4 mm or Greater A vascular Zone (angiogenesis): 91%; anti-ulcer activity (aspirin induced ulcer): demonstrates anti-ulcer activity
"C[C@]12CCC(=O)C=C1CC[C@@H]1C2=CC[C@@]2(C)[C@H]1CC[C@]2(O)C(=O)CN1CCN(c2ccccn2)CC1.Cl [Example 3, 17α-Hydroxy-21-[4-(2-pyridinyl) 1 piperazinyl]pregna-4,9(11)-diene-3,20dione hydrogen chloride salt]",,,active,,reduction of arterial cholesterol [3]: demonstrates reduction of serum and arterial cholesterol; reduction of serum cholesterol [3]: demonstrates reduction of serum and arterial cholesterol
"CCNc1cccc(N2CCN(CC(=O)[C@H]3[C@H](C)C[C@H]4[C@@H]5CCC6=CC(=O)C=C[C@]6(C)C5=CC[C@@]43C)CC2)n1 [Example 127, 21-[4-[6-(Ethylamino)-2-pyridinyl]piperazinyl]-16α-methylpregna-1,4,9(11)-triene-3,20-dione hydrochloride]",200.8,,,,
